The results in this text go back to US20230002357A1, “7-PYRIMIDINE-2-YL-OXY-INDAZOLE DERIVATIVES AND THEIR USE AS HERBICIDES” (SYNGENTA CROP PROTECTION AG, priority 2019, published 2023).

Assay type in all cases: in vivo
Holding throughout (conditions): 250 g/ha, evaluated after 13 days

For assay [1], the system named is Amaranthus retoflexus (AMARE). Briefly: Post-emergence Test, glasshouse, AMARE. Here is the method: (§1) Seeds of a variety of test species are sown in standard soil in pots Amaranthus retoflexus (AMARE), Echinochloa crus-galli (ECHCG), Setaria faberi (SETFA)). After cultivation for one day (pre-emergence) or after 8 days cultivation (post-emergence) under controlled conditions in a glasshouse (at 24/16° C., day/night; 14 hours light; 65% humidity), the plants are sprayed with an aqueous spray solution derived from the formulation of the technical active ingredient in acetone/water (50:50) solution containing 0.5% Tween™ 20 (polyoxyethelyene sorbitan monolaurate, CAS RN 9005-64-5). Compounds are applied at 250 g/ha unless otherwise stated. The test plants are then grown in a glasshouse under controlled conditions in a glasshouse (at 24/16° C., day/night; 14 hours light; 65% humidity) and watered twice daily. After 13 days for pre- and post-emergence, the test is evaluated for the percentage damage caused to the plant. The biological activities are shown in the following table on a five-point scale (5=81-100%; 4=61-80%; 3=41-60%; 2=21-40%; 1=0-20%).

Assay [2] concerns ABUTH. The assay is described as follows: Post-emergence Test, glasshouse, ABUTH. Here is the method:
as §1

In assay [3] the test system is Setaria faberi (SETFA). Briefly: Post-emergence Test, glasshouse, SETFA. Here is the method:
as §1

The subject of assay [4] is Echinochloa crus-galli (ECHCG). The assay is described as follows: Post-emergence Test, glasshouse, ECHCG. Here is the method:
as §1

Assay [5] has as its system IPOHE. The assay is described as follows: Post-emergence Test, glasshouse, IPOHE. Here is the method:
as §1

The subject of assay [6] is Amaranthus retoflexus (AMARE). Briefly: Pre-emergence Test, glasshouse, AMARE. Here is the method: as §1
The test system of assay [7] is ABUTH. Briefly: Pre-emergence Test, glasshouse, ABUTH. Here is the method:
as §1

In assay [8] the test system is Setaria faberi (SETFA). The assay is described as follows: Pre-emergence Test, glasshouse, SETFA. Here is the method:
as §1

Assay [9] deals with Echinochloa crus-galli (ECHCG). The assay is described as follows: Pre-emergence Test, glasshouse, ECHCG. Here is the method: as §1
For assay [10], the system named is IPOHE. The assay is described as follows: Pre-emergence Test, glasshouse, IPOHE. Here is the method: as §1

For the compound `FC(F)(F)CCn1ncc2cccc(Oc3ncc(Cl)cn3)c21` [Compound 1.042], the figures for the “percentage damage caused to the plant, five-point scale, AMARE” value (from here on “percentage damage caused … AMARE”) in assay [1] and in assay [6] were 4 (4=61-80%) and 5 (5=81-100%), respectively. For the same compound, the “percentage damage caused to the plant, five-point scale, ABUTH” value (“percentage damage caused … ABUTH” below) in [2] and in assay [7] was 4 (4=61-80%) in each case. The “percentage damage caused to the plant, five-point scale, SETFA” value (shortened to “percentage damage caused … SETFA”) in assay [3] is given as 4 (4=61-80%); in [8], 5 (5=81-100%). The “percentage damage caused to the plant, five-point scale, ECHCG” value (“percentage damage caused … ECHCG” for short) in [4] was 4 (4=61-80%); in assay [9] it was 5 (5=81-100%). Moreover, the “percentage damage caused to the plant, five-point scale, IPOHE” value (“percentage damage caused … IPOHE” below) is given as 2 (2=21-40%) in assay [5] and 1 (1=0-20%) in assay [10].
As for `FCCn1nc(Cl)c2cccc(Oc3ncc(Cl)cn3)c21` [Compound 1.062], the “percentage damage caused … AMARE” value in assay [1] is given as 3 (3=41-60%); in assay [6] it was 4 (4=61-80%). Further, the “percentage damage caused … ABUTH” value in assay [2] was 2 (2=21-40%); in [7], 1 (1=0-20%). Also, the “percentage damage caused … SETFA” value in assay [3] is reported as 1 (1=0-20%); in assay [8], 4 (4=61-80%). Also, the entries for the “percentage damage caused … ECHCG” value in assay [4] and in assay [9] were 1 (1=0-20%) and 2 (2=21-40%), respectively. Moreover, the “percentage damage caused … IPOHE” value in assay [5] and in [10] was 1 (1=0-20%) each time.
Regarding `FC(F)(F)CCn1nc(Cl)c2cccc(Oc3ncc(Cl)cn3)c21` [Compound 1.035], the results for the “percentage damage caused … AMARE” value in [1] and in [6] were 5 (5=81-100%) and 4 (4=61-80%), respectively. In addition, the “percentage damage caused … ABUTH” value is given as 5 (5=81-100%) in [2] and 3 (3=41-60%) in [7]. Moreover, the “percentage damage caused … SETFA” value is reported as 4 (4=61-80%) in [3] and 5 (5=81-100%) in assay [8]. Besides, the “percentage damage caused … ECHCG” value in assay [4] and in assay [9] was 5 (5=81-100%) throughout. For the same compound, the “percentage damage caused … IPOHE” value in assay [5] is 4 (4=61-80%); in assay [10], 3 (3=41-60%).
With `Fc1cc(Cl)cnc1Oc1cccc2ccn(CCCC(F)(F)F)c12` [Compound 1.004], the results for the “percentage damage caused … AMARE” value in [1] and in assay [6] were 3 (3=41-60%) and 1 (1=0-20%), respectively. In addition, the “percentage damage caused … ABUTH” value in assay [2] and in assay [7] was 1 (1=0-20%) each time. Moreover, the “percentage damage caused … SETFA” value is reported as 1 (1=0-20%) in assay [3] and 2 (2=21-40%) in assay [8]. Also, the “percentage damage caused … ECHCG” value in [4] and in [9] was 1 (1=0-20%) throughout. For the same compound, the figures for the “percentage damage caused … IPOHE” value in assay [5] and in [10] were 2 (2=21-40%) and 1 (1=0-20%), respectively.
Turning to `FC(F)(F)CCCn1nc(Br)c2cccc(Oc3ncc(Cl)cn3)c21` [Compound 1.006, 3-bromo-7-(5-chloropyrimidin-2-yl)oxy-1-(4,4,4-trifluorobutyl)indazole], the “percentage damage caused … AMARE” value in assay [1] and in [6] was 5 (5=81-100%) each time. Besides, the figures for the “percentage damage caused … ABUTH” value in [2] and in assay [7] were 5 (5=81-100%) and 2 (2=21-40%), respectively. The “percentage damage caused … SETFA” value is 4 (4=61-80%) in [3] and 5 (5=81-100%) in [8]. For the same compound, the “percentage damage caused … ECHCG” value in assay [4] and in [9] was 5 (5=81-100%) throughout. In addition, the “percentage damage caused … IPOHE” value was 2 (2=21-40%) in assay [5] and 1 (1=0-20%) in assay [10].
Take `C#CCn1nc(Cl)c2cccc(Oc3ncc(Cl)cn3)c21` [Compound 1.059]: the “percentage damage caused … AMARE” value is on record as 4 (4=61-80%) in assay [1] and 2 (2=21-40%) in [6]. For the same compound, the “percentage damage caused … ABUTH” value in assay [2] and in assay [7] was 2 (2=21-40%) in each case. Moreover, the figures for the “percentage damage caused … SETFA” value in assay [3] and in [8] were 1 (1=0-20%) and 2 (2=21-40%), respectively. Further, the entries for the “percentage damage caused … ECHCG” value in assay [4] and in assay [9] were 1 (1=0-20%) and 2 (2=21-40%), respectively. In addition, the “percentage damage caused … IPOHE” value in assay [5] and in assay [10] was 1 (1=0-20%) throughout.
Take `C=CCn1nc(Cl)c2cccc(Oc3ncc(Cl)cn3)c21` [Compound 1.065]: the “percentage damage caused … AMARE” value is listed as 4 (4=61-80%) in assay [1] and 2 (2=21-40%) in [6]. The “percentage damage caused … ABUTH” value in assay [2] and in assay [7] was 2 (2=21-40%) each time. Further, the “percentage damage caused … SETFA” value in [3] is 2 (2=21-40%); in assay [8] it was 4 (4=61-80%). The “percentage damage caused … ECHCG” value in assay [4] was 2 (2=21-40%); in assay [9], 3 (3=41-60%). The “percentage damage caused … IPOHE” value in assay [5] is on record as 2 (2=21-40%); in assay [10], 1 (1=0-20%).
As for `FC(F)(F)CCCn1nc(Br)c2cc(Br)cc(Oc3ncc(Cl)cn3)c21` [Compound 1.016], the “percentage damage caused … AMARE” value in assay [1] is recorded as 4 (4=61-80%); in assay [6], 1 (1=0-20%). The “percentage damage caused … ABUTH” value in assay [2] is recorded as 2 (2=21-40%); in assay [7], 1 (1=0-20%). Also, the “percentage damage caused … SETFA” value in assay [3] and in assay [8] was 1 (1=0-20%) throughout. For the same compound, the “percentage damage caused … ECHCG” value in [4] and in assay [9] was 1 (1=0-20%) each time. For the same compound, the “percentage damage caused … IPOHE” value in [5] and in [10] was 1 (1=0-20%) in each case.
Regarding `FC(F)(F)CCCn1ccc2cccc(Oc3ncc(Cl)cn3)c21` [Compound 1.003], the “percentage damage caused … AMARE” value in assay [1] is recorded as 3 (3=41-60%); in assay [6] it was 1 (1=0-20%). The “percentage damage caused … ABUTH” value in [2] is listed as 2 (2=21-40%); in assay [7], 1 (1=0-20%). Moreover, the “percentage damage caused … SETFA” value in assay [3] and in assay [8] was 1 (1=0-20%) each time. The “percentage damage caused … ECHCG” value in assay [4] and in assay [9] was 1 (1=0-20%) in each case. Also, the “percentage damage caused … IPOHE” value is 2 (2=21-40%) in [5] and 1 (1=0-20%) in assay [10].
`FC(F)(F)CCCn1ncc2cc(Br)cc(Oc3ncc(Cl)cn3)c21` [Compound 1.011, 5-bromo-7-(5-chloropyrimidin-2-yl)oxy-1-(4,4,4-trifluorobutyl)indazole]: the “percentage damage caused … AMARE” value in assay [1] is recorded as 3 (3=41-60%); in assay [6] it was 1 (1=0-20%). The “percentage damage caused … ABUTH” value in assay [2] and in assay [7] was 1 (1=0-20%) in each case. For the same compound, the “percentage damage caused … SETFA” value in [3] and in assay [8] was 1 (1=0-20%) in each case. Further, the “percentage damage caused … ECHCG” value in assay [4] and in [9] was 1 (1=0-20%) in each case. For the same compound, the “percentage damage caused … IPOHE” value in assay [5] and in assay [10] was 1 (1=0-20%) each time.
